Columns and labels:
[1] = tested on: Jurkat cells; test: Determination of cell diameter of Jurkat cells (EVE automatic cell counter); type: cell-based, human
Experimental: Cell diameters were measured with an EVE automatic cell counter (NanoEnTek, Seoul, South Korea). For cell diameter studies, a suitable protocol for Jurkat cells was established and all measurements were validated by visual inspection and if necessary corrected by hand using a personal computer based software. Viability was estimated by using trypan blue exclusion assays.
Cells were exposed to X-ray irradiation in cell culture flasks using an Isovolt 160 Titan E source with a voltage of 90 kV and 33.7 mA (GE Sensing & Inspection Technologies, Alzenau, Germany). Doses were delivered at a 30 cm source to probe distance with cell culture flasks placed on a 2 mm aluminum sheet. CDK1-inhibitor RO3306 (Axon Medchem, Groningen, Netherlands) was dissolved in DMSO at 14.2 mM and added to the cell culture medium in a final concentration of 3 µM. Cyclosporin A (Sigma-Aldrich) was dissolved in ddH2O and added to the cell culture medium of non-irradiated control cells or directly after irradiation of cells in a concentration of 1 µM. The cell permeable Ca^2+ buffer BAPTA-AM [1,2-Bis(2-aminophenoxy)ethane-N,N,N',N'-tetraacetic acid tetrakis(acetoxymethyl) ester, Thermo Fisher] was added to the cell culture medium 30 min prior to cell irradiation at 50 µM and was removed immediately after irradiation. Phytohemagglutinin (PHA-L) was purchased from Biochrom (Berlin, Germany). Cells were treated for 48 h by adding PHA-L to the cell culture medium at a concentration of 7.2 µg/ml. To activate human T-cells ImmunoCult™ Human CD3/CD28/CD2 T Cell Activator (Stem cell Technologies, Vancouver, BC, Canada) was added to the cell culture medium (25 µL per 1 mL of cell suspension) and maintained at 37°C and 5% CO2 for 48 h. The KCa2.2-specific ion channel blocker Tamapin was purchased from Alomone Labs (Jerusalem, Israel) and dissolved in purified water and diluted in external solution for patch clamp experiments.

[2] = tested on: Jurkat cells; test: Cell cycle analysis by flow cytometry (PI DNA content, cells in G2); type: cell-based, human; details: non-irradiated Jurkat cells, 3 µM RO3306
Experimental: (§1) Cells were exposed to X-ray irradiation in cell culture flasks using an Isovolt 160 Titan E source with a voltage of 90 kV and 33.7 mA (GE Sensing & Inspection Technologies, Alzenau, Germany). Doses were delivered at a 30 cm source to probe distance with cell culture flasks placed on a 2 mm aluminum sheet. CDK1-inhibitor RO3306 (Axon Medchem, Groningen, Netherlands) was dissolved in DMSO at 14.2 mM and added to the cell culture medium in a final concentration of 3 µM. Cyclosporin A (Sigma-Aldrich) was dissolved in ddH2O and added to the cell culture medium of non-irradiated control cells or directly after irradiation of cells in a concentration of 1 µM. The cell permeable Ca^2+ buffer BAPTA-AM [1,2-Bis(2-aminophenoxy)ethane-N,N,N',N'-tetraacetic acid tetrakis(acetoxymethyl) ester, Thermo Fisher] was added to the cell culture medium 30 min prior to cell irradiation at 50 µM and was removed immediately after irradiation. […]
Flow cytometric analyses were performed after 48 h following irradiation with propidium iodide (PI) solution (4% PI stock, 0.5 mg/ml PI, 38 mM sodium citrate, pH 7), 5% RNAse A stock (RNAse A 5 mg/ml, Tris–HCl 10 mM, NaCl 15 mM, pH 7) using a BioRad S3 Cell Sorter and the FlowJo 10 software for analysis (FlowJo LLC). The percentage of cells in G2/M phases was determined by single-parameter histograms of DNA content.

[3] = tested on: peripheral blood lymphocytes (PBL); test: Determination of cell diameter of PBL after mitogen stimulation; type: cell-based, human; details: PHA-L 7.2 µg/ml, 48 h
Experimental: Jurkat cells (ACC 282) were purchased from the German Collection of Microorganisms and Cell Cultures (DSMZ, Braunschweig, Germany). The human EC line EA.hy926 (Crl-2922) was established by fusion of human umbilical vein ECs and the adenocarcinoma epithelial cell line A549 ([18]) and was purchased from ATCC (LGC Standards, Wesel, Germany). Cells were either grown in RPMI 1640 medium (Jurkat), supplemented with 10% heat inactivated fetal calf serum (FCS; PAA, Cölbe, Germany) and 2 mM L-glutamine or in Dulbecco’s modified Eagle’s medium (Invitrogen, Karlsruhe, Germany), supplemented with 10% FCS 50 U/ml penicillin and 5 µg/ml streptomycin (Sigma-Aldrich, Munich, Germany). PBL were isolated from buffy coats using density gradient centrifugation (Biochrom, Berlin, Germany). After centrifugation (40 min at 1,000 × g, RT) interphase cells were isolated, washed twice with PBS, and pelleted by centrifugation (300 × g, 10 min). For adhesion assays, Jurkat cells and PBL were biotinylated by incubation (15 min on ice) with a biotin-N-hydroxysuccinimid ester (NHS-biotin, 10 mg/ml, Sigma-Aldrich) and maintained in RPMI 1640 Medium with 20% FCS, 1% HEPES, and 1% penicillin/streptomycin prior to assays. […]
Cell diameters were measured with an EVE automatic cell counter (NanoEnTek, Seoul, South Korea). […]

[4] = tested on: KCa2.2 channels; details: cited from earlier work
[5] = biological target: T1, KCa2.2 channels (Homo sapiens, UniProt Q9H2S1); test: Whole cell patch clamp recording of background current Ib in Jurkat cells; type: cell-based; details: Tamapin 10 nM
T1 construct: This small current includes, among others, the voltage independent small conductance K^+ channel KCa2.2; endogenous in cells; host or cells: Jurkat cells (ACC 282, DSMZ)
T1 sequence (Q9H2S1 whole entry): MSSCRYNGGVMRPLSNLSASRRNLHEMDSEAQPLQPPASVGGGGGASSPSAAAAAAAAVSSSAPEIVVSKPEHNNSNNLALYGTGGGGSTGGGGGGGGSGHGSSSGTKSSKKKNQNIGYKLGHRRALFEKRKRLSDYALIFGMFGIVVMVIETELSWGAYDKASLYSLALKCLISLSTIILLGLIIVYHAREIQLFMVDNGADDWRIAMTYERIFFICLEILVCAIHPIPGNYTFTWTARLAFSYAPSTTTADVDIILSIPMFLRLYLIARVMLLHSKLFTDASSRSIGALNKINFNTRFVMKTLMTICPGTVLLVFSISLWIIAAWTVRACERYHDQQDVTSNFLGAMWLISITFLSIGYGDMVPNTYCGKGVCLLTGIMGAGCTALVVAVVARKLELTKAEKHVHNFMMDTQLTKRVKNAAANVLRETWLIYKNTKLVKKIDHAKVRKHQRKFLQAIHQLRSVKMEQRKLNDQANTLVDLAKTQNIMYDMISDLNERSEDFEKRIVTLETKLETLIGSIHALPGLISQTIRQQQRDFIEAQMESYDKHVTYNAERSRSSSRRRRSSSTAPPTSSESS
Experimental: as §1, with “irradiation. Phytohemagglutinin (PHA-L) was purchased from Biochrom (Berlin, Germany). Cells were treated for 48 h by adding PHA-L to the cell culture medium at a concentration of 7.2 µg/ml.” for “irradiation.”
Membrane currents of cells were recorded in a whole cell configuration ([26]) using an EPC-9 amplifier (HEKA Electronics, Lambrecht, Germany). […] Currents were recorded and data analyzed with an EPC-9 amplifier and Patchmaster Software (all from Heka Electronic).

In the case of `CC(=O)OCOC(=O)CN(CC(=O)OCOC(C)=O)c1ccccc1OCCOc1ccccc1N(CC(=O)OCOC(C)=O)CC(=O)OCOC(C)=O` [BAPTA-AM, 1,2-Bis(2-aminophenoxy)ethane-N,N,N',N'-tetraacetic acid tetrakis(acetoxymethyl) ester], the “effect on radiation-induced increase in cell diameter” value ([1]; Jurkat cells irradiated with 2 Gy, cyclosporine A 1 µM or BAPTA-AM 50 µM) is reported as “decreased the effect of irradiation” and the “reduction of the radiation-induced cell diameter increase” value ([1]; irradiated Jurkat cells, cyclosporine A 1 µM or BAPTA-AM 50 µM) is reported as 50%.

For `O=C1NC(=NCc2cccs2)S/C1=C\c1ccc2ncccc2c1` [RO3306], the “increase in cell diameter” value ([1]; non-irradiated Jurkat cells, 3 µM RO3306) was 9.6 ± 3% and the “cells arrested in G2 phase” value [2] was 71%.

In the case of Phytohemagglutinin [PHA-L], the “fraction of cells with increased mean size” value ([3]; PBL from healthy donors, fit with two Gaussians) is reported as 45% and the “mean size (diameter) of the enlarged cell population” value ([3]; PBL, mock treated 7.2 µm) is reported as 10.2 µm.

In the case of “Tamapin: scorpion toxin, KCa2.2-specific ion channel blocker (Alomone Labs) (AFCNLRRCELSCRSLGLLGKCIGEECKCVPY; UniProt P59869 1-31, looked up)”, the IC50 [4] is given as 0.024 nM, the “inhibition of Ib” value ([5]; irradiated Jurkat cells (1.25 Gy, 48 h after X-ray)) is given as 23 ± 10% and the “inhibition of Ib” value ([5]; mock-irradiated control Jurkat cells, N = 3) is given as 3.3 ± 0.7%.
